How the values were obtained:
Type in all cases: cell-based
[1] = tested on: ARPE-19 (human retinal pigment epithelial cell line); test: MTS assay on Pentablock Polymer B, ARPE 19; conditions: ARPE 19, Triton X positive control
Protocol: The cytotoxicity and biocompatibility of the Pentablock Polymer A and Pentablock Polymer B were investigated in several cell lines. ARPE-19 (human retinal pigment epithelial cell line), SIRC (rabbit corneal cell line), and RAW 264.7 (mouse macrophage cell line) were obtained from American Type Culture Collection (“ATCC”). ARPE-19 cells were cultured in Dubelcco's modified Eagle's medium (“DMEM/F12”) supplemented with 10% fetal bovine serum (“FBS”), 100 U/mL penicillin and 100 μg/mL of streptomycin. SIRC cells were cultured in minimum essential medium (“MEM”) and supplemented with 10% FBS, 100 U/mL of penicillin and 100 μg/mL of streptomycin. RAW 264.7 (Mouse macrophage cells) cells were cultured in DMEM/[…] with 10% FBS, 10% of nonessential amino acids, 100 U/mL penicillin and 100 μg/mL of streptomycin. […] The cell cultures were exposed directly to different concentrations of Pentablock Polymer A and Pentablock Polymer B. Pentablock Polymer B: Cytotoxicity for Pentablock Polymer B was performed at different concentration ranging from 0.5-10 mg/ml. The plates were seeded with cell density of 10,000 cells/100 μL. […] After incubation, the absorbance of each well was measured at 450 nm by ELISA plate reader. The absorbance is directly proportional to viability of cells.

PCEC = test: MTS assay on Pentablock Polymer B, PCEC; conditions: Triton X positive control
Protocol: Pentablock Polymer B: Cytotoxicity for Pentablock Polymer B was performed at different concentration ranging from 0.5-10 mg/ml. The plates were seeded with cell density of 10,000 cells/100 μL. After 24 hours of incubation fresh medium containing hydrogel of different concentration ranging from 0.5-10 mg/ml were added and further incubated for 24 hours. MTS assay is based on the reduction of the tetrazolium salt (yellow) to fromazone (purple) by mitochondrial enzymes of metabolic active cells. The amount of the fromazone is directly proportional to viable cells. In MTS assay Trioton X treated cells were served as […]. […] After incubation, the absorbance of each well was measured at 450 nm by ELISA plate reader. The absorbance is directly proportional to viability of cells.

[2] = tested on: SIRC (rabbit corneal cell line); test: MTS assay on Pentablock Polymer A, SIRC; conditions: Triton X positive control
Protocol: (§1) The cytotoxicity and biocompatibility of the Pentablock Polymer A and Pentablock Polymer B were investigated in several cell lines. ARPE-19 (human retinal pigment epithelial cell line), SIRC (rabbit corneal cell line), and RAW 264.7 (mouse macrophage cell line) were obtained from American Type Culture Collection (“ATCC”). ARPE-19 cells were cultured in Dubelcco's modified Eagle's medium (“DMEM/F12”) supplemented with 10% fetal bovine serum (“FBS”), 100 U/mL penicillin and 100 μg/mL of streptomycin. SIRC cells were cultured in minimum essential medium (“MEM”) and supplemented with 10% FBS, 100 U/mL of penicillin and 100 μg/mL of streptomycin. RAW 264.7 (Mouse macrophage cells) cells were cultured in DMEM/F12supplemented with 10% FBS, 10% of nonessential amino acids, 100 U/mL penicillin and 100 μg/mL of streptomycin. The pH of the medium was adjusted to 7.4 and cells were incubated in humidified atmosphere at 37° C. temperature with 5% CO2 environment. The cell cultures were exposed directly to different concentrations of Pentablock Polymer A and Pentablock Polymer B. […]
(§2) MTS assay is based on the reduction of the tetrazolium salt (yellow) to fromazone (purple) by mitochondrial enzymes of metabolic active cells. […] After incubation, the absorbance of each well was measured at 450 nm by ELISA plate reader. The absorbance is directly proportional to viability of cells.

[3] = tested on: RAW 264.7 (mouse macrophage cell line); test: MTS assay on Pentablock Polymer A, RAW 264.7; conditions: RAW 264.7, Triton X positive control
Protocol: as §1, §2

Substance: Triton X
- MTS assay (absorbance proportional to viability of cells) [1]: 0.000
- MTS assay (absorbance proportional to viability of cells) (PCEC): 0.000
- MTS assay (absorbance proportional to viability of cells) [2]: 0
- MTS assay (absorbance proportional to viability of cells) [3]: 0

Reference: US9011927B2, “Pentablock polymers” (The Curators of the University of Missouri, priority 2010, dated 2015)
